The target in one series is PDE10 from pig striatum (Sus scrofa, UniProt A0A287B941). Put plainly: Inhibition of PDE10 from pig striatum ([3H]-cAMP SPA, Methods A and B). The format is biochemical. As to conditions: PDE10 pig. As for the experimental part: Striatum from male Wistar rats (180-200 g), male hybrid pigs (150 kg) and male guinea pigs (CRL (HA), 500 g) respectively were collected and frozen at −70° C. At the day of preparation 0.5 g striatum was homogenised in 10 ml 50 mM Tris/Mg-buffer at 4° C. and centrifuged for one hour at 100000 g. The supernatant is called the cytosolic fraction and was removed and stored on ice. The pellet was resuspended in the same buffer, but containing 1% Triton and incubated for 45 min at 4° C. Both fractions were independently applied onto a 5 ml Hi Trap™ QHP column at the Äkta-FPLC. After washing the columns the bound PDE protein was eluted with an increasing sodium chloride gradient (0 mM-500 mM sodium chloride) in 50 mM Tris/Mg-buffer at 4° C. for the cytosolic fraction and in the presence of 1% Triton for the membrane fraction. […] The fractions with PDE10-activity were pooled and frozen in aliquots until use at −20° C. PDE10 activity was determined in a one step procedure in microtiter plates. […] Nonspecific activity was tested without the enzyme. The reaction was initiated by addition of the substrate solution and was carried out at 37° C. for 30 minutes. Enzymatic activity was stopped by addition of 25 μl YSi-SPA-beads (Amersham-Pharmacia). One hour later the mixture was measured in a liquid scintillation counter for microtiter plates (Microbeta Trilux). To pipette the incubation mixture a robot Biomek (Fa. Beckman) is used. […] For determination of IC50 values the Hill-plot, 2-parameter-model, was used. […] Striatum from male hybrid pigs (150 kg) were collected and frozen at −70° C. At the day of preparation 0.5 g striatum was homogenised in 10 ml 50 mM Tris/Mg-buffer at 4° C. and centrifuged for one hour at 100000 g. The supernatant was removed and the pellet was resuspended in the same buffer, but containing 1% Triton and incubated for 45 min at 4° C. The membrane fraction was applied onto a 5 ml Hi Trap™ QHP column at the Äkta-FPLC. After washing the column the bound PDE protein was eluted with an increasing sodium chloride gradient (0 mM-500 mM sodium chloride) in 50 mM Tris/Mg-buffer at 4° C. in the presence of 1% Triton. […] The fractions with PDE10-activity were pooled and frozen in aliquots until use at −20° C. PDE10 activity was determined in a one step procedure in microtiterplates. […] Nonspecific activity was tested without the enzyme. The reaction was initiated by addition of the substrate solution and was carried out at 37° C. for 30 minutes. Enzymatic activity was stopped by addition of 25 μl YSi-SPA-beads (Amersham-Pharmacia). One hour later the mixture was measured in a liquid scintillation counter for microtiterplates (Microbeta Trilux). To pipette the incubation mixture a robot Biomek (Fa. Beckman) is used. […] For determination of IC50 values the Hill-plot, 2-parameter-model, was used.

Another series concerns the target T1, human recombinant PDE10A (Homo sapiens, UniProt Q9Y233).
T1 construct: made in house; host or cells: SF21 insect cells (baculovirus)
Put plainly: Inhibition of human recombinant PDE10A ([3H]-cAMP SPA, Method B). The format is biochemical. As to conditions: read-out: PDE10 inhibition IC50 [nM] PDE10A human.

Series [1] has as its system rats. As to conditions: Kostowski et al. 1976; cited from earlier work.
In series [2] the test system is rats. As to conditions: Kostowski et al. 1976; cited from earlier work. The source holds these as a separate data set.
In series [3] the test system is rats. As to conditions: Kostowski et al. 1976; cited from earlier work. The source holds these as a separate data set.

T1 sequence (Q9Y233 1-779 isoform Q9Y233-1): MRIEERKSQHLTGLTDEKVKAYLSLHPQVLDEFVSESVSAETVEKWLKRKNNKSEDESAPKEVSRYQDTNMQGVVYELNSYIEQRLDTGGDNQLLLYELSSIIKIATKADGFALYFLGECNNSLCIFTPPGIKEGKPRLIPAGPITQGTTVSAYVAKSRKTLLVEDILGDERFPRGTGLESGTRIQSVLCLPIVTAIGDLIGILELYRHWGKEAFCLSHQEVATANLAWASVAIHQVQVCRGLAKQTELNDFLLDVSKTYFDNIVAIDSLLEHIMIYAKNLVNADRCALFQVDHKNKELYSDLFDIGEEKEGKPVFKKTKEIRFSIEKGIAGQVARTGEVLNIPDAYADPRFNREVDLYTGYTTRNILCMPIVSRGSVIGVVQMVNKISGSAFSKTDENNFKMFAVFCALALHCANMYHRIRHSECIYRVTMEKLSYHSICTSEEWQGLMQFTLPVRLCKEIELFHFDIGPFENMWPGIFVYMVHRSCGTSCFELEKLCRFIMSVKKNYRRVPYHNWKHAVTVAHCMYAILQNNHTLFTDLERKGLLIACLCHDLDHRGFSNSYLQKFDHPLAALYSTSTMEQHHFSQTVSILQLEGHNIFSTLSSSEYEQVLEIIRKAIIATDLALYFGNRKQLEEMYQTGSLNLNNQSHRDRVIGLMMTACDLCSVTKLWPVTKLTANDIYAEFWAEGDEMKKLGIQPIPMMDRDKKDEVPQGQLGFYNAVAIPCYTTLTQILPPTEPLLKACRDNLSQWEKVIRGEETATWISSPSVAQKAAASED

In the case of `CCCc1nc(C)c2c(N)nc3ccccc3n12` [Example 4, 3-Methyl-1-propyl-imidazo(1,5-a)quinoxalin-4-ylamine], the melting point (commonly the temperature of the solid-liquid transition) fell in the range of 187 to 188 °C. Further, the 50% inhibitory concentration (IC50) (commonly the concentration that gives 50% inhibition) against PDE10 from pig striatum was not below 100 nM.

For the compound `CCc1nc(C)c2c(N)nc3ccc(F)cc3n12` [Example 5, 1-Ethyl-8-fluoro-3-methyl-imidazo(1,5-a)quinoxalin-4-ylamine], the melting point is 238 to 239 °C. This compound also displayed a concentration for half-maximal inhibition (IC50) against PDE10 from pig striatum not below 100 nM.

`CCCc1nc(C)c2c(N)nc3ccc(F)cc3n12` [Example 6, 8-Fluoro-3-methyl-1-propyl-imidazo(1,5-a)quinoxalin-4-ylamine]: the melting point was 240 to 243 °C. On PDE10 from pig striatum, this compound yielded a concentration for half-maximal inhibition (IC50) of 10 to 100 nM.

Take `Cc1nc(C2CCCCC2)n2c1c(C)nc1ccc(Cl)cc12` [Example 10, 8-Chloro-1-cyclohexyl-3,4-dimethyl-imidazo(1,5-a)quinoxaline]: the melting point is 228 to 234 °C. Besides, the IC50 on PDE10 from pig striatum lay within 10 to 100 nM.

As for `CCc1nc(C)c2c(C)nc3ccccc3n12` [Example 11, 3,4-Dimethyl-1-ethyl-imidazo(1,5-a)quinoxaline], the melting point was 123 to 125 °C. The compound also yielded a 50% inhibitory concentration (IC50) on PDE10 from pig striatum not below 100 nM.

The compound `CCc1nc(C)c2c(C)nc3ccc(F)cc3n12` [Example 12, 3,4-Dimethyl-1-ethyl-8-fluoro-imidazo(1,5-a)quinoxaline] came in with a melting point of 139 to 142 °C. This compound also showed a half-maximal inhibitory concentration (IC50) at PDE10 from pig striatum not below 100 nM.

`CCCc1nc(C)c2c(C)nc3ccc(F)cc3n12` [Example 13, 3,4-Dimethyl-8-fluoro-1-propyl-imidazo(1,5-a)quinoxaline] yielded a melting point of 140 to 144 °C. On PDE10 from pig striatum, this compound registered a half-inhibitory concentration (IC50) of 10 to 100 nM.

Regarding `Cc1nc(C2CCCCC2)n2c1c(C)nc1ccc(F)cc12` [Example 14, 1-Cyclohexyl-3,4-dimethyl-8-fluoro-imidazo(1,5-a)quinoxaline], the melting point fell in the range of 195 to 200 °C. In addition, the half-maximal inhibitory concentration (IC50) against PDE10 from pig striatum fell in the range of 10 to 100 nM.

For the compound `CCc1nc(C)c2c(C)nc3ccc(N4CCCCC4)cc3n12` [Example 17, 3,4-Dimethyl-1-ethyl-8-(piperidin-1-yl)-imidazo(1,5-a)quinoxaline], the melting point lay in the range of 132 to 134 °C. This compound came in with a half-inhibitory concentration (IC50) against PDE10 from pig striatum of 10 to 100 nM.

The compound `Cc1nc(C2CCCCC2)n2c1c(N)nc1ccc(OCC3CC3)cc12` [Example 40, 1-Cyclohexyl-8-cyclopropylmethoxy-3-methyl-imidazo[1,5-a]quinoxalin-4-ylamine] displayed a melting point of 241 to 242 °C. In addition, at human recombinant PDE10A, the 50% inhibitory concentration (IC50) is not below 100 nM. In addition, the concentration for half-maximal inhibition (IC50) at PDE10 from pig striatum lay within 10 to 100 nM.

`CCCc1nc(C)c2c(C)nc3ccc(OCC4CC4)cc3n12` [Example 42, 8-Cyclopropylmethoxy-3,4-dimethyl-1-propyl-imidazo[1,5-a]quinoxaline] showed a melting point of 110 to 112 °C. Besides, the half-maximal inhibitory concentration (IC50) at human recombinant PDE10A is 10 to 100 nM. The compound further returned an IC50 at PDE10 from pig striatum of 10 to 100 nM.

Compound `Cc1nc(C2CCCCC2)n2c1c(C)nc1ccc(OCC3CC3)cc12` [Example 44, 1-Cyclohexyl-8-cyclopropylmethoxy-3,4-dimethyl-imidazo[1,5-a]quinoxaline] displayed a melting point of 154 to 157 °C. For the same compound, the concentration for half-maximal inhibition (IC50) on human recombinant PDE10A is not below 100 nM. For the same compound, the 50% inhibitory concentration (IC50) on PDE10 from pig striatum lay within 10 to 100 nM.

The compound `CCCc1nc(C)c2c(C)nc3c(OC)cc(OC)cc3n12` [Example 45, 6,8-Dimethoxy-3,4-dimethyl-1-propyl-imidazo[1,5-a]quinoxaline] had a melting point of 185 to 187 °C. On human recombinant PDE10A, the IC50 is not above 10 nM. Also, on PDE10 from pig striatum, the half-inhibitory concentration (IC50) was not above 10 nM.

In turn, `COc1ccc2c(c1)nc(C)c1c(C)nc(-c3ccccc3Cl)n12` [Example 47, 1-(2-Chloro-phenyl)-7-methoxy-3,4-dimethyl-imidazo[1,5-a]quinoxaline] returned a melting point of 186 to 188.5 °C. Moreover, at human recombinant PDE10A, the half-maximal inhibitory concentration (IC50) was 10 to 100 nM. Also, at PDE10 from pig striatum, the half-inhibitory concentration (IC50) is not above 10 nM.

In turn, `CCCc1nc(C)c2c(C)nc3cc(OCc4ccc5ccccc5n4)ccc3n12` [Example 49, 3,4-Dimethyl-1-propyl-7-(quinolin-2-ylmethoxy)-imidazo(1,5-a)quinoxaline] yielded a melting point of 134 to 136 °C. Besides, the half-inhibitory concentration (IC50) at human recombinant PDE10A is not above 10 nM. Further, the half-inhibitory concentration (IC50) on PDE10 from pig striatum was not above 10 nM.

Regarding `Cc1nc(-c2ccccc2Cl)n2c1c(C)nc1c(OCC3CC3)cc(OCC3CC3)cc12` [Example 50, 1-(2-Chloro-phenyl)-6,8-bis-cyclopropylmethoxy-3,4-dimethyl-imidazo[1,5-a]quinoxaline], the melting point lay within 180 to 195 °C. Moreover, the 50% inhibitory concentration (IC50) on human recombinant PDE10A was not above 10 nM. In addition, the IC50 at PDE10 from pig striatum is not above 10 nM.

Consider `COc1cc(OC)c2nc(C)c3c(C)nc(C4CCCCC4)n3c2c1` [Example 51, 1-Cyclohexyl-6,8-dimethoxy-3,4-dimethyl-imidazo[1,5-a]quinoxaline], for which the melting point was in the range of 219 to 222 °C. Moreover, the IC50 at human recombinant PDE10A was not above 10 nM. The concentration for half-maximal inhibition (IC50) at PDE10 from pig striatum was not above 10 nM.

On to `COc1cc(OC)c2nc(C)c3c(C)nc(-c4ccccc4C)n3c2c1` [Example 52, 6,8-Dimethoxy-3,4-dimethyl-1-o-tolyl-imidazo[1,5-a]quinoxaline], for which the melting point fell in the range of 168 to 169 °C. The half-inhibitory concentration (IC50) at human recombinant PDE10A was not above 10 nM. The same compound came in with an IC50 at PDE10 from pig striatum not above 10 nM.

In turn, `COc1cc(OC)c2nc(C)c3c(C)nc(-c4ccccc4Cl)n3c2c1` [Example 53, 1-(2-Chloro-phenyl)-6,8-dimethoxy-3,4-dimethyl-imidazo[1,5-a]quinoxaline] had a melting point of 183 to 189 °C. For the same compound, the IC50 on human recombinant PDE10A was not above 10 nM. The compound also yielded an IC50 against PDE10 from pig striatum not above 10 nM.

`CCc1nc(C)c2c(Cl)nc3ccccc3n12` [Intermediate B3]: the melting point lay in the range of 125 to 128 °C. The compound also showed an IC50 against PDE10 from pig striatum of 10 to 100 nM.

Consider `CCCc1nc(C)c2c(Cl)nc3ccccc3n12` [Intermediate B4, 4-Chloro-3-methyl-1-propyl-imidazo(1,5-a)quinoxaline], for which the melting point lay in the range of 99 to 101 °C. At PDE10 from pig striatum, this compound gave an IC50 of 10 to 100 nM.

As for `CCc1nc(C)c2c(Cl)nc3ccc(F)cc3n12` [Intermediate B5], the melting point is 157 to 160 °C. This compound displayed an IC50 at PDE10 from pig striatum of 10 to 100 nM.

Consider `CCCc1nc(C)c2c(Cl)nc3ccc(F)cc3n12` [Intermediate B6, 4-Chloro-8-fluoro-3-methyl-1-propyl-imidazo(1,5-a)quinoxaline], for which the melting point is 133 to 135 °C. In addition, the IC50 against PDE10 from pig striatum lay in the range of 10 to 100 nM.

On to `Cc1nc(C2CCCCC2)n2c1c(Cl)nc1ccc(F)cc12` [Intermediate B7, 4-Chloro-1-cyclohexyl-8-fluoro-3-methyl-imidazo(1,5-a)quinoxaline], for which the melting point lay within 205 to 210 °C. In addition, the 50% inhibitory concentration (IC50) against PDE10 from pig striatum is 10 to 100 nM.

As for `Cc1nc(C2CCCCC2)n2c1c(Cl)nc1ccc(Cl)cc12` [Intermediate B9, 4,8-Dichloro-1-cyclohexyl-3-methyl-imidazo(1,5-a)quinoxaline], the melting point fell in the range of 244 to 248 °C. This compound also displayed an IC50 against PDE10 from pig striatum not below 100 nM.

`CCCc1nc(C)c2c(Cl)nc3ccc(N4CCCCC4)cc3n12` [Intermediate B10] gave a melting point of 105 to 108 °C. The compound further registered an IC50 against PDE10 from pig striatum of 10 to 100 nM.

In the case of `COc1ccc(Cc2nccc3cc(OC)c(OC)cc23)cc1OC` [Papaverine], the “dopamine concentration in rat brain” value in the series with rats [1] is listed as “reducing”. The haloperidol-induced catalepsy entry in the series on rats [2] is on record as “increases”. The apomorphine-induced stereotypies entry in the series on rats [3] is recorded as “reduces”.

(Values after US7875618B2, “Substituted imidazo[1,5-a]quinoxalines useful as inhibitors of phosphodiesterase 10 for the treatment of neurological and other disorders” (Wyeth, priority 2007, dated 2011).)
